The values below come from US5994342A, “3-(substituted methyl)-4-oxa-1-azabicyclo[3.2.0]heptan-7-one derivatives useful as antitumor agents” (priority 1994, dated 1999).

One data set concerns KB cells. Nature of the data set: In vitro KB cell cytotoxicity assay (crystal violet). The class given is cell-based. The settings on record: Homo sapiens, 72 h, 3 days culture, read-out: KB Cell Cytotoxicity TD50. How it is done:
In Vitro KB Cell Cytotoxicity Assay In vitro KB cell cytoxocity assay was done by modification of the crystal violet assay ([…] et al., Anal Biochem., 159, 109-113 (1986). KB cells were cultivated in Eagles minimum essential medium supplemented with 10% calf serum and incubated at 37° C. in a humidified 5% CO2 atmosphere to prepare a cell stock. Cells were counted using a neubauer hemocytometer and seeded in 96 well plates at 100 μl of 3×10^4 cells/ml and cultured for one day. […] Control wells were identical except that test compound was absent. These were cultured for three days. Then the cells were fixed with addition of 20 μl of 25% glutaraldehyde for 15 minutes, washed with water and dried. Then stained with 100 μl of 0.05% crystal violet for 15 minutes, washed with water and dried. The wells are eluted with […] of 0.05M NaH2 PO4 /ethanol (1:1 v/v) and read at OD540 on a multiscan spectrophotometer. Inhibition value of cell growth was calculated based on optical density using the following equation; [formula] TD50 values were calculated from linear regression ines of the log-logit plot.

The test system of another data set is Sarcoma 180. Kind of data set: In vivo antitumor activity against Sarcoma 180. On the set-up: species or system male ICR mice. As to conditions: i.p., days 1, 5 and 9. As for the experimental part:
In Vivo Antitumor Activity Against Sarcoma 180
The compounds of general formula (I) were tested in vivo against Sarcoma 180 xenografted tumor to mice as illustrated herein after.
Sarcoma 180, 5×10^6 cells were inoculated by S.C. to male ICR mice (6 week old) on day 0. Drugs were administered on days 1, 5 and 9. Mice were killed and tumor weight was measured on day 12 after transplantation. The percentage inhibition of tumor growth was calculated from the mean tumor weight of the treated group compared with that of the control group. Number of mice used in each group was between 6 to 7.

[1] abbreviates: Mus musculus, Sarcoma-180, ip, 288 h, 100 mg/kg/day, tumor s.c., tumor weight day 12, read-out: % Inhibition of tumor growth.
The mark [2] stands for this setting: Mus musculus, Sarcoma-180, ip, 288 h, 12.5 mg/kg/day, tumor s.c., tumor weight day 12, read-out: % Inhibition of tumor growth.
Where [3] appears, read: Mus musculus, Sarcoma-180, ip, 288 h, 25 mg/kg/day, tumor s.c., tumor weight day 12, read-out: % Inhibition of tumor growth.
Where [4] appears, read: Mus musculus, Sarcoma-180, ip, 288 h, 40 mg/kg/day, tumor s.c., tumor weight day 12, read-out: % Inhibition of tumor growth.
Setting [5] is: Mus musculus, Sarcoma-180, ip, 288 h, 50 mg/kg/day, tumor s.c., tumor weight day 12, read-out: % Inhibition of tumor growth.

In brackets after ≈: the same amount, converted by molar mass. Counter-ions that a name gives are not always drawn.

Turning to `O=C1C[C@H]2O[C@H](CNC(=O)C(F)(F)F)CN12` (racemic) [Example 7, (3RS,5RS)-3-[N-(Trifluoroacetyl)aminomethyl]-4-oxa-1-azabicyclo[3.2.0]heptan-7-one], the IC50 in the data set with KB cells turned out to be 0.205 µg/mL (≈ 0.861 µM). Moreover, the “Mortality in 12 days” value in the data set on Sarcoma 180 (100 mg/kg/day) is given as 2/6. For the same compound, the inhibition in vivo at 100 mg/kg in the data set with Sarcoma 180 (setting [1]) was determined as 39.8%.
In the case of `CCN(CC)C(=O)NC[C@@H]1CN2C(=O)C[C@H]2O1` (racemic) [Example 33, (3RS,5RS)-3-[N-(N,N-Diethylcarbamyl)]aminomethyl-4-oxa-1-azabicyclo[3.2.0]heptan-7-one], the IC50 in the data set with KB cells is 0.246 µg/mL (≈ 1.02 µM). Moreover, the “Mortality in 12 days” value in the data set on Sarcoma 180 (22.5 mg/kg/day), with Sarcoma 180 (45 mg/kg/day) and with Sarcoma 180 (90 mg/kg/day) was 0/6 in each case. The inhibition in vivo at 22.5 mg/kg with Sarcoma 180 (Mus musculus, Sarcoma-180, ip, 288 h, 22.5 mg/kg/day, tumor s.c., tumor weight day 12, read-out: % Inhibition of tumor growth) is 46.6%. Besides, in the data set with Sarcoma 180 (Mus musculus, Sarcoma-180, ip, 288 h, 45 mg/kg/day, tumor s.c., tumor weight day 12, read-out: % Inhibition of tumor growth), the inhibition in vivo at 45 mg/kg was found to be 66.2%. Moreover, the inhibition in vivo at 90 mg/kg in the data set with Sarcoma 180 (Mus musculus, Sarcoma-180, ip, 288 h, 90 mg/kg/day, tumor s.c., tumor weight day 12, read-out: % Inhibition of tumor growth) came to 74.5%.
As to `O=C(NC[C@@H]1CN2C(=O)C[C@H]2O1)NC[C@@H]1CN2C(=O)C[C@H]2O1` (racemic) [Example 34, N,N'-Di-{[(3RS,5RS)-7-oxo-1-aza-4-oxabicyclo[3.2.0]hept-3-yl]methyl}urea], in the data set on KB cells, the IC50 turned out to be 0.151 µg/mL (≈ 0.487 µM). The “Mortality in 12 days” value in the data set with Sarcoma 180 (6.25 mg/kg/day) is 0/6; in the data set on Sarcoma 180 (12.5 mg/kg/day) it was 0/6; with Sarcoma 180 (25 mg/kg/day), 5/6. In addition, the inhibition in vivo at 6.25 mg/kg in the data set with Sarcoma 180 (Mus musculus, Sarcoma-180, ip, 288 h, 6.25 mg/kg/day, tumor s.c., tumor weight day 12, read-out: % Inhibition of tumor growth) came out at 59.8%. Moreover, in the data set with Sarcoma 180 (setting [2]), the inhibition in vivo at 12.5 mg/kg worked out at 76.3%. Besides, in the data set with Sarcoma 180 (setting [3]), the inhibition in vivo at 25 mg/kg is 92.5%.
With `O=C(Cc1cccs1)NC[C@@H]1CN2C(=O)C[C@H]2O1` (racemic) [Example 31, (3RS,5RS)-3-[N-(Thiophen-2-yl)acetylaminomethyl]-4-oxa-1-azabicyclo[3.2.0]heptan-7-one], in the data set with KB cells, the IC50 was 0.098 µg/mL (≈ 0.368 µM). Also, the “Mortality in 12 days” value with Sarcoma 180 (40 mg/kg/day) is on record as 1/6. In addition, in the data set on Sarcoma 180 (setting [4]), the inhibition in vivo at 40 mg/kg came out at 35.5%.
Take `N[C@@H](CC(=O)O)C(=O)NCC(=O)NCC1CN2C(=O)CC2O1` (stereo partly drawn) [Example 46B, (3RS,5RS)-3-N-[N-(L-2-Amino-3-carboxypropanoyl)aminoacetyl]aminomethyl-4-oxa-1-azabicyclo[3.2.0]heptan-7-one]: the IC50 in the data set on KB cells is 2.63 µg/mL (≈ 8.37 µM). Moreover, the “Mortality in 12 days” value is reported as 0/6 in the data set with Sarcoma 180 (12.5 mg/kg/day), 0/6 with Sarcoma 180 (25 mg/kg/day) and 1/6 with Sarcoma 180 (50 mg/kg/day). The inhibition in vivo at 12.5 mg/kg in the data set on Sarcoma 180 (setting [2]) is 44.7%. For the same compound, in the data set on Sarcoma 180 (setting [3]), the inhibition in vivo at 25 mg/kg turned out to be 55.7%. For the same compound, in the data set with Sarcoma 180 (setting [5]), the inhibition in vivo at 50 mg/kg was 76.9%.
`NCC(=O)NC[C@@H]1CN2C(=O)C[C@H]2O1` (relative stereo) [Example 43, (3RS,5RS)-3-N-(Aminoacetyl)aminomethyl-4-oxa-1-azabicyclo[3.2.0]heptan-7-one hydrochloride]: the IC50 in the data set on KB cells amounted to 0.429 µg/mL. In addition, the “Mortality in 12 days” value with Sarcoma 180 (6.3 mg/kg/day), in the data set with Sarcoma 180 (12.5 mg/kg/day), in the data set with Sarcoma 180 (25 mg/kg/day) and with Sarcoma 180 (50 mg/kg/day) was 0/6 throughout. For the same compound, in the data set on Sarcoma 180 (Mus musculus, Sarcoma-180, ip, 288 h, 6.3 mg/kg/day, tumor s.c., tumor weight day 12, read-out: % Inhibition of tumor growth), the inhibition in vivo at 6.3 mg/kg came to 48.7%. In addition, the inhibition in vivo at 12.5 mg/kg with Sarcoma 180 (setting [2]) is 57%. Further, the inhibition in vivo at 25 mg/kg in the data set on Sarcoma 180 (setting [3]) amounted to 58.9%. Also, the inhibition in vivo at 50 mg/kg in the data set with Sarcoma 180 (setting [5]) worked out at 72.1%.
With `CC(=O)NC(COC(C)=O)C(=O)OC[C@H]1CN2C(=O)C[C@@H]2O1` (mixture of isomers) [Example 75B, (3RS,5SR)-3-(2-Acetamido-3-acetoxypropanoyl)oxymethyl-4-oxa-1-azabicyclo[3.2.0]heptan-7-one], the IC50 in the data set on KB cells was determined as 0.567 µg/mL (≈ 1.8 µM). In addition, the “Mortality in 12 days” value in the data set on Sarcoma 180 (12.5 mg/kg/day) is reported as 0/6; with Sarcoma 180 (25 mg/kg/day) it was 0/6; in the data set with Sarcoma 180 (50 mg/kg/day), 4/6. The inhibition in vivo at 12.5 mg/kg in the data set on Sarcoma 180 (setting [2]) was 37.8%. Further, the inhibition in vivo at 25 mg/kg in the data set with Sarcoma 180 (setting [3]) was 65.1%. Also, in the data set with Sarcoma 180 (setting [5]), the inhibition in vivo at 50 mg/kg is 77.8%.
`C[C@H](N)C(=O)NCC(=O)OC[C@H]1CN2C(=O)C[C@@H]2O1.Cl` (mixture of isomers) [Example 41B, (3RS,5SR)-3-[N-(L-2-Aminopropanoyl)aminoacetyl]oxymethyl-4-oxa-1-azabicyclo[3.2.0]heptan-7-one hydrochloride]: the IC50 with KB cells amounted to 0.295 µg/mL. In addition, the “Mortality in 12 days” value in the data set with Sarcoma 180 (12.5 mg/kg/day) and in the data set on Sarcoma 180 (25 mg/kg/day) was 0/6 throughout. In addition, the inhibition in vivo at 12.5 mg/kg in the data set on Sarcoma 180 (setting [2]) was determined as 43.9%. Besides, in the data set on Sarcoma 180 (setting [3]), the inhibition in vivo at 25 mg/kg came out at 62.8%.
With `CC(C)[C@H](NC(=O)[C@@H](N)CC(=O)O)C(=O)OCC1CN2C(=O)CC2O1` (stereo partly drawn) [Example 57B, (3RS,5RS)-3-N-[L-2-N-(L-2-Amino-3-carboxypropanoyl)amino-3-methylbutyryl]oxymethyl-4-oxa-1-azabicyclo[3.2.0]heptan-7-one], in the data set with KB cells, the IC50 was found to be 1.54 µg/mL (≈ 4.31 µM). For the same compound, the “Mortality in 12 days” value is 0/6 in the data set with Sarcoma 180 (12.5 mg/kg/day), 0/6 in the data set on Sarcoma 180 (25 mg/kg/day) and 1/6 in the data set with Sarcoma 180 (50 mg/kg/day). Also, in the data set with Sarcoma 180 (setting [2]), the inhibition in vivo at 12.5 mg/kg is 40.9%. The inhibition in vivo at 25 mg/kg in the data set with Sarcoma 180 (setting [3]) came to 58.1%. In addition, the inhibition in vivo at 50 mg/kg in the data set with Sarcoma 180 (setting [5]) was 83.1%.
Turning to `Cl.NC[C@@H]1CN2C(=O)C[C@H]2O1` (racemic) [Example 22, (3RS,5RS)-3-aminomethyl-4-oxa-1-azabicyclo[3.2.0]heptan-7-one hydrochloride], the IC50 in the data set with KB cells stood at 0.344 µg/mL. The “Mortality in 12 days” value with Sarcoma 180 (40 mg/kg/day) and in the data set with Sarcoma 180 (80 mg/kg/day) was 0/6 throughout. For the same compound, the inhibition in vivo at 40 mg/kg in the data set with Sarcoma 180 (setting [4]) came out at 26.7%. Further, the inhibition in vivo at 80 mg/kg in the data set on Sarcoma 180 (Mus musculus, Sarcoma-180, ip, 288 h, 80 mg/kg/day, tumor s.c., tumor weight day 12, read-out: % Inhibition of tumor growth) is 40.3%.
With `N[C@H](CCC(=O)OC[C@H]1CN2C(=O)C[C@@H]2O1)C(=O)O` (mixture of isomers) [Example 68B, (3RS,5SR)-3-(D-4-Amino-4-carboxybutyryl)oxymethyl-4-oxa-1-azabicyclo[3.2.0]heptan-7-one], the IC50 in the data set on KB cells was 0.189 µg/mL. Also, the “Mortality in 12 days” value in the data set on Sarcoma 180 (12.5 mg/kg/day) is given as 0/6; in the data set on Sarcoma 180 (25 mg/kg/day), 0/6; in the data set with Sarcoma 180 (50 mg/kg/day) it was 3/6. In addition, the inhibition in vivo at 12.5 mg/kg in the data set with Sarcoma 180 (setting [2]) is 49.1%. For the same compound, the inhibition in vivo at 25 mg/kg with Sarcoma 180 (setting [3]) is 69.7%. The inhibition in vivo at 50 mg/kg with Sarcoma 180 (setting [5]) came out at 80.3%.
Take `N[C@@H](CC(=O)OC[C@H]1CN2C(=O)C[C@@H]2O1)C(=O)O` (mixture of isomers) [Example 65B, (3RS,5SR)-3-(L-3-Amino-3-carboxypropanoyl)oxymethyl-4-oxa-1-azabicyclo[3.2.0]heptan-7-one]: the IC50 with KB cells turned out to be 0.451 µg/mL. The “Mortality in 12 days” value with Sarcoma 180 (100 mg/kg/day) is 0/6. The inhibition in vivo at 100 mg/kg with Sarcoma 180 (setting [1]) came out at 55%.
Turning to `CC(C)[C@H](N)C(=O)N[C@@H](COCc1ccccc1)C(=O)OCC1CN2C(=O)CC2O1` (stereo partly drawn) [Example 74B, (3RS,5SR)-3-[L-2-N-(L-2-N-Amino-3-methylbutyryl)amino-3-benzyloxypropanoyloxymethyl]-4-oxa-1-azabicyclo[3.2.0]heptan-7-one hydrochloride], in the data set with KB cells, the IC50 worked out at 0.669 µg/mL. Besides, the “Mortality in 12 days” value in the data set with Sarcoma 180 (50 mg/kg/day) is reported as 0/6; in the data set with Sarcoma 180 (100 mg/kg/day) it was 1/6. The inhibition in vivo at 50 mg/kg in the data set with Sarcoma 180 (setting [5]) came to 49.9%. In the data set on Sarcoma 180 (setting [1]), the inhibition in vivo at 100 mg/kg was 84.1%.
